PubChem BioAssay (NCI)
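Values below derive from 48-hour exposures of cells grown in 96-well plates, with endpoints linearly interpolated between the two concentrations bracketing the appropriate inhibition level. GI50: concentration for 50% inhibition of growth. TGI: total growth inhibition.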

Legend:
Test in all cases: NCI tumour cell line growth inhibition, 48 h
786-0 renal = tested on: 786-0 renal
A498 renal = tested on: A498 renal
A549 NSCLC = tested on: A549 NSCLC
ACHN renal = tested on: ACHN renal
BT-549 breast = tested on: BT-549 breast
CAKI-1 renal = tested on: CAKI-1 renal
CCRF-CEM leukemia = tested on: CCRF-CEM leukemia
COLO 205 colon = tested on: COLO 205 colon
DU-145 prostate = tested on: DU-145 prostate
EKVX NSCLC = tested on: EKVX NSCLC
HCC-2998 colon = tested on: HCC-2998 colon
HCT-116 colon = tested on: HCT-116 colon
HCT-15 colon = tested on: HCT-15 colon
HL-60(TB) leukemia = tested on: HL-60(TB) leukemia
HOP-62 NSCLC = tested on: HOP-62 NSCLC
HOP-92 NSCLC = tested on: HOP-92 NSCLC
HS 578T breast = tested on: HS 578T breast
HT29 colon = tested on: HT29 colon
IGROV1 ovarian = tested on: IGROV1 ovarian
K-562 leukemia = tested on: K-562 leukemia
KM12 colon = tested on: KM12 colon
LOX IMVI melanoma = tested on: LOX IMVI melanoma
M14 melanoma = tested on: M14 melanoma
MALME-3M melanoma = tested on: MALME-3M melanoma
MCF7 breast = tested on: MCF7 breast
MDA-MB-231 breast = tested on: MDA-MB-231 breast
MDA-MB-435 = tested on: MDA-MB-435
MOLT-4 leukemia = tested on: MOLT-4 leukemia
NCI-H226 lung = tested on: NCI-H226 lung
NCI-H23 lung = tested on: NCI-H23 lung
NCI-H460 lung = tested on: NCI-H460 lung
NCI-H522 lung = tested on: NCI-H522 lung
NCI/ADR-RES ovarian = tested on: NCI/ADR-RES ovarian
OVCAR-3 ovarian = tested on: OVCAR-3 ovarian
OVCAR-4 ovarian = tested on: OVCAR-4 ovarian
OVCAR-5 ovarian = tested on: OVCAR-5 ovarian
OVCAR-8 ovarian = tested on: OVCAR-8 ovarian
PC-3 prostate = tested on: PC-3 prostate
RPMI-8226 leukemia = tested on: RPMI-8226 leukemia
RXF 393 renal = tested on: RXF 393 renal
SF-268 CNS = tested on: SF-268 CNS
SF-295 CNS = tested on: SF-295 CNS
SF-539 CNS = tested on: SF-539 CNS
SK-MEL-2 melanoma = tested on: SK-MEL-2 melanoma
SK-MEL-28 melanoma = tested on: SK-MEL-28 melanoma
SK-MEL-5 melanoma = tested on: SK-MEL-5 melanoma
SK-OV-3 ovarian = tested on: SK-OV-3 ovarian
SN12C renal = tested on: SN12C renal
SNB-19 CNS = tested on: SNB-19 CNS
SNB-75 CNS = tested on: SNB-75 CNS
SR leukemia = tested on: SR leukemia
SW-620 colon = tested on: SW-620 colon
T-47D breast = tested on: T-47D breast
TK-10 renal = tested on: TK-10 renal
U251 CNS = tested on: U251 CNS
UACC-257 melanoma = tested on: UACC-257 melanoma
UACC-62 melanoma = tested on: UACC-62 melanoma
UO-31 renal = tested on: UO-31 renal

Oc1c(Cl)cc(Cl)c2cccnc12
GI50 (786-0 renal): 3.29 µM | TGI (786-0 renal): 11.8 µM | GI50 (A498 renal): 2.92 µM | TGI (A498 renal): 12.1 µM | GI50 (A549 NSCLC): 3.49 µM | TGI (A549 NSCLC): 29.6 µM | GI50 (ACHN renal): 3.78 µM | TGI (ACHN renal): 40.5 µM | GI50 (BT-549 breast): 4.12 µM | TGI (BT-549 breast): 52.7 µM | GI50 (CAKI-1 renal): 2.71 µM | TGI (CAKI-1 renal): 19 µM | GI50 (CCRF-CEM leukemia): 2.75 µM | TGI (CCRF-CEM leukemia): > 100 µM | GI50 (COLO 205 colon): 3.43 µM | TGI (COLO 205 colon): 13.4 µM | GI50 (DU-145 prostate): 4.51 µM | TGI (DU-145 prostate): 45.7 µM | GI50 (EKVX NSCLC): 2.9 µM | TGI (EKVX NSCLC): 15.2 µM | GI50 (HCC-2998 colon): 10.1 µM | TGI (HCC-2998 colon): 26 µM | GI50 (HCT-116 colon): 2.97 µM | TGI (HCT-116 colon): 10.1 µM | GI50 (HCT-15 colon): 4.73 µM | TGI (HCT-15 colon): 25.9 µM | GI50 (HL-60(TB) leukemia): 2.87 µM | TGI (HL-60(TB) leukemia): 6.65 µM | GI50 (HOP-62 NSCLC): 2.24 µM | TGI (HOP-62 NSCLC): 21.1 µM | GI50 (HOP-92 NSCLC): 2.8 µM | TGI (HOP-92 NSCLC): 26.3 µM | GI50 (HS 578T breast): 6.88 µM | TGI (HS 578T breast): > 100 µM | GI50 (HT29 colon): 4.99 µM | TGI (HT29 colon): 18 µM | GI50 (IGROV1 ovarian): 3.72 µM | TGI (IGROV1 ovarian): 18.8 µM | GI50 (K-562 leukemia): 3.77 µM | TGI (K-562 leukemia): > 100 µM | GI50 (KM12 colon): 4.58 µM | TGI (KM12 colon): 16.7 µM | GI50 (LOX IMVI melanoma): 2.18 µM | TGI (LOX IMVI melanoma): 15.7 µM | GI50 (M14 melanoma): 1.96 µM | TGI (M14 melanoma): 5.26 µM | GI50 (MALME-3M melanoma): 2.78 µM | TGI (MALME-3M melanoma): 13.1 µM | GI50 (MCF7 breast): 3.75 µM | TGI (MCF7 breast): 13.8 µM | GI50 (MDA-MB-231 breast): 3.04 µM | TGI (MDA-MB-231 breast): 18.3 µM | GI50 (MDA-MB-435): 3.84 µM | TGI (MDA-MB-435): > 100 µM | GI50 (MOLT-4 leukemia): 3.41 µM | TGI (MOLT-4 leukemia): 17.8 µM | GI50 (NCI-H226 lung): 3.15 µM | TGI (NCI-H226 lung): 14.7 µM | GI50 (NCI-H23 lung): 4.2 µM | TGI (NCI-H23 lung): 42.5 µM | GI50 (NCI-H460 lung): 1.87 µM | TGI (NCI-H460 lung): 6.9 µM | GI50 (NCI-H522 lung): 1.83 µM | TGI (NCI-H522 lung): 4.85 µM | GI50 (NCI/ADR-RES ovarian): 3.3 µM | TGI (NCI/ADR-RES ovarian): > 100 µM | GI50 (OVCAR-3 ovarian): 3.17 µM | TGI (OVCAR-3 ovarian): 11.6 µM | GI50 (OVCAR-4 ovarian): 2.32 µM | TGI (OVCAR-4 ovarian): 7.85 µM | GI50 (OVCAR-5 ovarian): 8.71 µM | TGI (OVCAR-5 ovarian): 43.3 µM | GI50 (OVCAR-8 ovarian): 2.75 µM | TGI (OVCAR-8 ovarian): 54.6 µM | GI50 (PC-3 prostate): 3.94 µM | TGI (PC-3 prostate): > 100 µM | GI50 (RPMI-8226 leukemia): 4.34 µM | TGI (RPMI-8226 leukemia): > 100 µM | GI50 (RXF 393 renal): 2.25 µM | TGI (RXF 393 renal): 7.91 µM | GI50 (SF-268 CNS): 3.39 µM | TGI (SF-268 CNS): > 100 µM | GI50 (SF-295 CNS): 1.96 µM | TGI (SF-295 CNS): > 100 µM | GI50 (SF-539 CNS): 4.08 µM | TGI (SF-539 CNS): 71.1 µM | GI50 (SK-MEL-2 melanoma): 3.83 µM | TGI (SK-MEL-2 melanoma): 11.5 µM | GI50 (SK-MEL-28 melanoma): 3.96 µM | TGI (SK-MEL-28 melanoma): 29.4 µM | GI50 (SK-MEL-5 melanoma): 1.76 µM | TGI (SK-MEL-5 melanoma): 3.59 µM | GI50 (SK-OV-3 ovarian): 3.71 µM | TGI (SK-OV-3 ovarian): 16.2 µM | GI50 (SN12C renal): 3.39 µM | TGI (SN12C renal): 51.8 µM | GI50 (SNB-19 CNS): 3.73 µM | TGI (SNB-19 CNS): 24.6 µM | GI50 (SNB-75 CNS): 6.27 µM | TGI (SNB-75 CNS): > 100 µM | GI50 (SR leukemia): 2.68 µM | TGI (SR leukemia): 9.48 µM | GI50 (SW-620 colon): 4.47 µM | TGI (SW-620 colon): 18.4 µM | GI50 (T-47D breast): 2.35 µM | TGI (T-47D breast): 12 µM | GI50 (TK-10 renal): 5.56 µM | TGI (TK-10 renal): 30.8 µM | GI50 (U251 CNS): 2.67 µM | TGI (U251 CNS): 55 µM | GI50 (UACC-257 melanoma): 2.26 µM | TGI (UACC-257 melanoma): 7.24 µM | GI50 (UACC-62 melanoma): 1.79 µM | TGI (UACC-62 melanoma): 5.04 µM | GI50 (UO-31 renal): 2.5 µM | TGI (UO-31 renal): 9.31 µM
